Measurements reported in patent US20230158006A1, “USE OF DIRECT THROMBIN INHIBITORS IN THE TREATMENT OF NEURODEGENERATIVE DISEASES” (priority 2020, published 2023).
“Also recorded” adds a separate entry of the source.

Assays:
[1] = tested on: HIF-1a, thrombin, IL-6, MCP-1, MMP2; test: Immunofluorescence of cerebrovascular expression of HIF-1a and inflammatory proteins in AD transgenic mice; assay type: in vivo; conditions: 100 mg/kg daily for 34 weeks
Description: (§1) Administration of thrombin inhibitor to mice and immunofluorescent staining of mice brain sections: Adult wild-type 3×TgAD—LaFerla (control) and 3×TgAD—LaFerla mice were purchased at 8 weeks of age from The Jackson Laboratory (Bar Harbor, Me.). Daily administration of the orally available direct thrombin inhibitor (DTI) dabigatran etexylate (Pradaxa®, Boehringer Ingelheim, Germany) (100 mg/kg) in PBS to AD mice and vehicle to control mice began at 18 weeks of age and continued daily for 34 weeks. DTI was administered in food. To ensure all food, and therefore drug, was consumed while maintaining ad libitum weight, mice were weighed, and food intake monitored daily. All animal procedures were performed in accordance with NIH “Guide for the Care and Use of Laboratory Animals” and Texas Tech University Health Sciences Center Institutional Animal Care and Use Committee (IACUC) guidelines.
Mice were euthanized, and brain tissue fixed with 10% neutral buffered formalin (NBF). The brain was removed and 1 mm blocks of tissue from cerebral cortex were post fixed in 10% NBF for additional 12 h and embedded in paraffin. […] Sections (3 per mouse) were incubated with DAPI solution at room temperature for 25 min and viewed using an Olympus IX71 microscope and quantified with HAMAMATSU imaging software. […]

[2] = tested on: rat brain endothelial cells; test: Cell survival by MTT assay, brain endothelial cell cultures exposed to hypoxia or normoxia; assay type: cell-based
Description: (§2) Culture and hypoxic exposure of rat brain endothelial cells: Brain endothelial cell cultures were obtained from rat brain micro-vessels, as previously described (Diglio et al., 1993). The purity of these cultures was confirmed using antibodies to the endothelial cell surface antigen Factor VIII. Endothelial cells used in this study (passages 8-15) were maintained in Dulbecco's modified Eagle's medium (DMEM, Sigma-Aldrich, St. Louis, Mo.) supplemented with 10% fetal bovine serum (FBS), 1% antibiotic/antimycotic, and 2 mM glutamine. Confluent endothelial cell cultures were washed three times with Hank's balanced salt solution (HBSS, Gibco, Grand Island, N.Y.) and then incubated at 37° C. with serum-free DMEM for 6 h under hypoxic (1% 02) or normoxic (21% 02) conditions.
Measurement of cell survival by MTT assay: Cells were washed with phosphate buffer saline (PBS) and incubated with the MTT reagent 3-(4,5-dimethylthiazol-2-yl)-2-5-diphenyl tetrazolium bromide (1:40 dilution) for 5-10 min at 37° C. The cells convert the MTT reagent to formazan which is quantified by colorimetric assay (Cell Titer 95 Aqueous solution cell proliferation assay, Promega, Madison, Wis.). The formazan product was read at 490 nm. The number of control cells, i.e., viable cells not exposed to any treatment, was defined as 100%.
Brain micro-vessel endothelial cell cultures were incubated with the DTI dabigatran (10 pM-100 nM), exposed to hypoxia for 6 h and cell viability measured by MTT assay. There was a modest (19%) but significant (p<0.05) increase in cell survival at 1-10 nM DTI while DTI doses in excess of 100 nM were toxic.

reactive oxygen species = test: ROS level (DHE) in frontal cortex brain sections of AD transgenic mice; assay type: in vivo; conditions: DTI for 34 weeks, p<0.001 vs untreated AD mice
Description: Administration of thrombin inhibitor to mice and immunofluorescent staining of mice brain sections: Adult wild-type 3×TgAD—LaFerla (control) and 3×TgAD—LaFerla mice were purchased at 8 weeks of age from The Jackson Laboratory (Bar Harbor, Me.). Daily administration of the orally available direct thrombin inhibitor (DTI) dabigatran etexylate (Pradaxa®, Boehringer Ingelheim, Germany) (100 mg/kg) in PBS to AD mice and vehicle to control mice began at 18 weeks of age and continued daily for 34 weeks. DTI was administered in food. To ensure all food, and therefore drug, was consumed while maintaining ad libitum weight, mice were weighed, and food intake monitored daily. […]
Detection of reactive oxygen species in cell culture and mouse brain tissue sections: Brain endothelial cell cultures were grown on coverslips in 24-well plates, incubated at 37° C. in serum free media with or without dabigatran (DTI, 1 nM) and exposed to hypoxic (6 h, 1% 02) or normoxic (21% 02) conditions. […] Brain sections and cell cultures were incubated with 5 pM of dihydroethidium (DH E) fluorescence dye (Life Technologies, Grand Island, N.Y.; D23107) and Hoechst33342 NucBlue® stain (Life Technologies, R37605) for 30 min in the dark at room temperature. […] Following two washes with PBS, images were captured immediately using an Olympus IX71 microscope and analyzed using HAMAMATSU imaging software. […]

[3] = tested on: reactive oxygen species in brain endothelial cell cultures; test: ROS levels (DHE) in cultured brain endothelial cells; assay type: cell-based, rat; conditions: for hypoxia-induced increase in ROS generation: 6 h hypoxia, p<0.001; for ROS level, mean signal intensity of DHE stained cells to non-stained cells: DTI 1 nM, mean ± SD
Description: as §2
Detection of reactive oxygen species in cell culture and mouse brain tissue sections: Brain endothelial cell cultures were grown on coverslips in 24-well plates, incubated at 37° C. in serum free media with or without dabigatran (DTI, 1 nM) and exposed to hypoxic (6 h, 1% 02) or normoxic (21% 02) conditions. Sections from frozen brain (10-20 µm thickness) were placed on coverslips in 24-well plates with 0.5 ml of PBS at room temperature. Brain sections and cell cultures were incubated with 5 pM of dihydroethidium (DH E) fluorescence dye (Life Technologies, Grand Island, N.Y.; D23107) and Hoechst33342 NucBlue® stain (Life Technologies, R37605) for 30 min in the dark at room temperature. DHE is a cell permeable compound which reacts with intracellular ROS to form oxyethidium, which emits a bright red color detectable by fluorescent microscopy. Following two washes with PBS, images were captured immediately using an Olympus IX71 microscope and analyzed using HAMAMATSU imaging software.
Brain endothelial cell cultures were incubated in serum-free media or serum free media plus DTI (1 nM) and exposed to hypoxia (1% 02) or normoxic (21% 02) conditions for 6 h. The cells were incubated for 30 min with 5 pM of Dihydroethidium (DHE, red) fluorescent dye and NucBlue stain (blue). ROS generation was assessed by quantitation of signal intensities of DHE stained cells to non-stained cells. Data represent mean signal intensity of DHE stained cells to non-stained cells±SD from at least 3 separate experiments performed in duplicate. ***p<0.001 vs. Control; a p<0.001 vs. Hypoxia.

[4] = tested on: HIF-1a, thrombin, IL-6, MCP-1, MMP2 mRNA; test: Real time PCR of brain tissue from AD transgenic mice; assay type: in vivo; conditions: 100 mg/kg daily for 34 weeks
Description: as §1
(§3) Real-time PCR analysis: RNA from cultured rat brain endothelial cells was prepared using the TRI Reagent RT (Molecular Research Center, Inc., Cincinnati, Ohio), according to manufacturer protocol. […] Fold difference between two samples (relative quantification) was determined by use of the delta-delta method [S1/S2=2−(T1−T2)], where S1 and S2 represent samples 1 and 2, and T1 and T2 represent the threshold cycles of samples 1 and 2, respectively.

[5] = tested on: HIF-1a, thrombin, IL-6, MCP-1, MMP2 mRNA; test: Real-time PCR of inflammatory gene expression in brain endothelial cells exposed to 6 h hypoxia; assay type: cell-based, rat; conditions: 1 nM, p<0.01-0.001, FIG. 1
Description: as §2
as §3, with “respectively. […]” for “respectively.”

brain oxidative stress = test: Short treatment of transgenic Tg4510 AD mice, brain oxidative stress; assay type: in vivo; conditions: non-published results
Description: Fifteen-month-old Tg4510 mice (The Jackson Laboratory, Bar Harbor, Me.) treated for one week with vehicle dimethyl sulfoxide (DMSO) (Spectrum Chemicals & Laboratory Products, New Brunswick, N.J.) or Dabigatran (Pradaxa®, Boehringer Ingelheim Pharmaceuticals, Inc., Ridgefield, Conn.) at doses of 100 mg/kg via oral gavage. Wild-type control mice were treated with vehicle for one week. Brains were collected and homogenized and protein expression was evaluated using western blot.

TNFa, IL-6, IL-8, MMPs = test: Production of inflammatory proteins from endothelial cells in AD models

CCCCCCOC(=O)NC(=N)c1ccc(NCc2nc3cc(C(=O)N(CCC(=O)OCC)c4ccccn4)ccc3n2C)cc1
cerebrovascular expression of HIF-1a, thrombin, IL-6, MCP-1, MMP2 proteins ([1]; FIG. 2): significantly decreases expression
cerebrovascular expression of HIF-1a, thrombin, IL-6, MCP-1, MMP2 proteins ([1]; FIG. 2, listed as DTI): reduced expression of these proteins
increase in cell survival ([2]; hypoxia 6 h, 1-10 nM DTI, p<0.05): 19%
DTI doses toxic to cells ([2]; hypoxia 6 h, MTT): > 100 nM
effect on cell survival under normoxic conditions ([2]; normoxic, doses under 100 nM, data not shown): did not affect cell survival
ROS generation (DHE level) in brain sections (reactive oxygen species; FIG. 4): inhibited; also recorded: significantly decreases expression
ROS generation (DHE level) in brain sections (reactive oxygen species; FIG. 4, listed as DTI): decreased DHE level
hypoxia-induced increase in ROS generation [3]: inhibited
hypoxia-induced increase in ROS generation ([3]; listed as DTI): blocked
ROS level, mean signal intensity of DHE stained cells to non-stained cells ([3]; Control + DTI: normoxic (21% O2) 6 h): 0.65±
ROS level, mean signal intensity of DHE stained cells to non-stained cells ([3]; Hypoxia + DTI: hypoxia (1% O2) 6 h, p<0.001 vs. Hypoxia): 0.92 ± 0.06a
RNA levels of HIF-1a, thrombin, IL-6, MCP-1, MMP2 in brain tissue ([4]; p<0.01 to p<0.001, FIG. 3): reduces expression
RNA levels of HIF-1a, thrombin, IL-6, MCP-1, MMP2 in brain tissue ([4]; p<0.01 to p<0.001, FIG. 3, listed as DTI): decrease in RNA levels
hypoxia-mediated effects on inflammatory gene expression (HIF-1a, thrombin, IL-6, MCP-1, MMP2 mRNA) [5]: reduced hypoxia-mediated effects on inflammatory gene expression
brain oxidative stress (brain oxidative stress): lowering brains' oxidative stress
production of TNFa, IL-6, IL-8, MMPs and other inflammatory proteins from endothelial cells (TNFa, IL-6, IL-8, MMPs): reducing the production
